# Laboratory results taken from paper PMC3216401 (Antiviral research, 2011).
# Read-outs that look alike come from different tables or passages of the source.
# Tests used:
# [1] = system: A/Thailand/2(Kan-1)/16/2004 (H5N1)
# in vitro [2] = details: dog, CC50, Visual Assay
# in vitro [3] = details: dog, CC50, Neutral Red Uptake Assay
# [4] = system: A/Hong Kong/213/2003 (H5N1)
# [5] = system: A/Hong Kong/213/2003 (H5N1); test: microbe, parasite or virus in culture; details: Influenza A virus, H5N1, MDCK, read-out: IC50, Neutral Red Uptake Assay
# [6] = system: A/Thailand/2(Kan-1)/16/2004 (H5N1); test: microbe, parasite or virus in culture; assay type: cell-based; details: Influenza A virus, H5N1, MDCK, read-out: IC90, VYR Assay
# [7] = system: A/Hong Kong/213/2003 (H5N1); test: microbe, parasite or virus in culture; assay type: cell-based; details: Influenza A virus, H5N1, MDCK, read-out: IC90, VYR Assay
# [8] = system: A/Thailand/2(Kan-1)/16/2004 (H5N1); test: microbe, parasite or virus in culture; details: Influenza A virus, H5N1, MDCK, read-out: IC50, Neutral Red Uptake Assay
# [9] = system: A/Hong Kong/213/2003 (H5N1); remark: listed apart in the source
# [10] = system: Influenza A/Vietnam/1203/2004 (H5N1); test: microbe, parasite or virus in culture; details: H5N1, MDCK, read-out: IC50, Visual Assay
# [11] = mouse, in vivo
# [12] = system: influenza A/Vietnam/1203/2004 H5N1 virus; details: in vivo
# [13] = system: Influenza A/Vietnam/1203/2004 (H5N1); test: microbe, parasite or virus in culture; assay type: cell-based; details: H5N1, MDCK, read-out: IC90, VYR Assay
# [14] = system: A/Thailand/2(Kan-1)/16/2004 (H5N1); remark: listed apart in the source
# [15] = system: Influenza A/Vietnam/1203/2004 (H5N1); test: microbe, parasite or virus in culture; details: H5N1, MDCK, read-out: IC50, Neutral Red Uptake Assay
# [16] = system: A/Hong Kong/213/2003 (H5N1); test: microbe, parasite or virus in culture; details: Influenza A virus, H5N1, MDCK, read-out: IC50, Visual Assay
# [17] = system: A/Thailand/2(Kan-1)/16/2004 (H5N1); test: microbe, parasite or virus in culture; details: Influenza A virus, H5N1, MDCK, read-out: IC50, Visual Assay
# MDCK cells [18] = system: MDCK cells
# MDCK cells [19] = system: MDCK cells; remark: listed apart in the source
# [20] = system: Influenza A/Vietnam/1203/2004 (H5N1)
# [21] = system: Influenza A/Vietnam/1203/2004 (H5N1); remark: listed apart in the source
# influenza virus = details: mouse, in vivo, sc; cited from earlier work
# influenza virus (H1N1) = details: read-out: EC50, influenza virus replication in MDCK cells; cited from earlier work
# influenza viruses = test: microbe, parasite or virus in culture; assay type: cell-based, influenza A and B viruses; details: Influenza A virus, read-out: IC50 values, range
smiles,measurement,setting,value
Nc1nc(=O)n([C@H]2C[C@H](O)[C@@H](CO)O2)cc1F [2'-deoxy-5-fluorocytidine],"SI (CC50/IC50), Visual Assay",[1],0 ± 0
same,CC50,in vitro [2],> 100 µM
same,CC50,in vitro [3],> 100 µM
same,"SI (CC50/IC50), Neutral Red Uptake Assay",[4],0 ± 0
same,IC50,[5],> 100 µM
same,IC90,[6],> 100 µM
same,IC90,[7],> 100 µM
same,IC50,[8],> 100 µM
same,"SI (CC50/IC50), Visual Assay",[9],0 ± 0
same,IC50,[10],0.19 ± 0.03 µM
same,Tolerability,[11],well- tolerated
same,Toxicity in mice,[11],considerable toxicity in the form of severe weight loss
same,Inhibition in the H5N1 mouse model,[12],not inhibitory
same,Toxicity in the H5N1 mouse model,[12],very toxic
same,Promotion of survival of infected mice,[12]; mouse,not very effective
same,"Protection from death, i.p.",[12]; mouse,not shielded from death
same,IC90,[13],0.13 µM
same,"SI (CC50/IC50), Neutral Red Uptake Assay",[14],0 ± 0
same,IC50,[15],0.09 ± 0.1 µM
same,IC50,[16],> 100 µM
same,IC50,[17],> 100 µM
"[N-]=[N+]=N[C@@H]1[C@H](O)[C@@H](COP(=O)(O)OP(=O)(O)OP(=O)(O)O)O[C@H]1n1ccc(N)nc1=O [2’-azido-2’-deoxycytidine, 2'-azido-2'-deoxyctidine-5'-triphosphate]","SI (CC50/IC50), Visual Assay",[1],0 ± 0
same,"SI (CC50/IC50), Neutral Red Uptake Assay",[4],0 ± 0
same,"CC50, Neutral Red Uptake Assay",MDCK cells [18],>100 ± 0 µM
same,"CC50, Visual Assay",MDCK cells [19],>100 ± 0 µM
same,"SI (CC50/IC50), Visual Assay",[9],0 ± 0
same,"SI (CC50/IC50), Neutral Red Uptake Assay",[14],0 ± 0
same,"SI (CC50/IC50), Neutral Red Uptake Assay",[20],> 2030
Nc1ncnc2c1ncn2[C@@H]1O[C@H](CO)[C@@H](O)[C@H]1F [2’-deoxy-2’-fluoroadenosine],"SI (CC50/IC50), Visual Assay",[21],0
same,"SI (CC50/IC50), Visual Assay",[1],0
same,"SI (CC50/IC50), Neutral Red Uptake Assay",[4],0
same,IC50,[5],> 100 µM
same,IC50,[8],> 100 µM
same,"SI (CC50/IC50), Visual Assay",[9],0
same,IC50,[10],> 100 µM
same,"SI (CC50/IC50), Neutral Red Uptake Assay",[14],0
same,IC50,[15],> 100 µM
same,IC50,[16],> 100 µM
same,"SI (CC50/IC50), Neutral Red Uptake Assay",[20],0
same,IC50,[17],> 100 µM
Nc1nc2c(ncn2[C@@H]2O[C@H](CO)[C@@H](O)[C@H]2F)c(=O)[nH]1 [2’-deoxy-2’-fluoroguanosine],"SI (CC50/IC50), Visual Assay",[21],>4.8
same,"SI (CC50/IC50), Visual Assay",[1],0
same,Mice protected from death,influenza virus,50%
same,EC50,influenza virus (H1N1),18.2 µM
same,IC50,influenza viruses,8.5 to 21 µM
same,"SI (CC50/IC50), Visual Assay",[9],>12
same,IC50,[10],21 µM
same,IC50,[15],8.6 µM
same,IC50,[16],8.5 µM
same,"SI (CC50/IC50), Neutral Red Uptake Assay",[20],>12
same,IC50,[17],> 100 µM
O=c1ccn([C@@H]2O[C@H](CO)[C@@H](O)[C@H]2F)c(=O)[nH]1 [2’-deoxy-2’-fluorouridine],"SI (CC50/IC50), Visual Assay",[21],0
same,"SI (CC50/IC50), Visual Assay",[1],0
same,IC50,[10],> 100 µM
same,IC50,[15],> 100 µM
same,"SI (CC50/IC50), Neutral Red Uptake Assay",[20],0
same,IC50,[17],> 100 µM
Nc1ccn([C@@H]2O[C@H](CO)[C@@H](O)[C@H]2I)c(=O)n1 [2’-iodo-2’-deoxycytidine],"SI (CC50/IC50), Visual Assay",[21],0
same,"SI (CC50/IC50), Visual Assay",[1],0
same,"SI (CC50/IC50), Neutral Red Uptake Assay",[4],0
same,IC50,[5],> 100 µM
same,IC50,[8],> 100 µM
same,"SI (CC50/IC50), Visual Assay",[9],0
same,IC50,[10],> 100 µM
same,"SI (CC50/IC50), Neutral Red Uptake Assay",[14],0
same,IC50,[15],> 100 µM
same,IC50,[16],> 100 µM
same,"SI (CC50/IC50), Neutral Red Uptake Assay",[20],0
same,IC50,[17],> 100 µM
